Common to all, as to test: biochemical
The target of one experiment is PIP5K1B (Homo sapiens, UniProt O14986). On the set-up: SelectScreen Adapta purified lipid kinase panel, 1 uM compound, 10 uM ATP, per cent inhibition. The note with it: ATP=10; Technology=Adapta; 10 uM ATP. As for the experimental part: As PI3KC2α is related to other PI3Ks and to PI3K-like protein kinases such as mTOR, the selectivity of PITCOINs was determined in a panel of biochemical assays. […] Finally, the high specificity of PITCOINs for PI3KC2α was verified by Kinobead profiling experiments. In this approach, the ability of PITCOINs to compete the affinity capture of cellular kinases on immobilized nonselective kinase inhibitors (Kinobeads) is analyzed by mass spectrometry (MS)[31]. […] Four nonkinase weak off-targets were globally found for the three inhibitors with only FECH[32] common to the three PITCOINs (Supplementary Dataset).  Extended Data Fig. 2 Lipid kinase inhibitor profile of PITCOIN1-3. (a–c) Selectivity profiling of PITCOIN1-3 (1 µM) with purified lipid kinases in the presence of 10 µM ATP. […] Data are presented as mean ± SD from two independent experiments. (d, e) IC50 measurements of PITCOIN1-3 against purified recombinant class I PI3K p110α/p85α (d) or purified class III PI3K VPS34 complex II (e). 10 µM ATP and 20 µM PIP3 (for p110α/p85α) or 200 µM PI (for VPS34 complex II) were used as substrates. […] Data are presented as mean ± SD from two independent experiments. Source data

A further experiment has as its target T1, JAK2 JH1 JH2 (Homo sapiens, UniProt O60674).
T1 construct: JH1 JH2
On the set-up: SelectScreen Z'-LYTE purified kinase panel, per cent inhibition, mean of two points. The settings on record: (μM)=Km app.

For a further experiment, the target named is PKN1 (PRK1) (Homo sapiens, UniProt Q16512). On the set-up: SelectScreen Z'-LYTE purified kinase panel, per cent inhibition, mean of two points. The settings on record: (μM)=Km app.
A further experiment concerns the target PRKCA (PKC alpha) (Homo sapiens, UniProt P17252). On the set-up: SelectScreen Z'-LYTE purified kinase panel, per cent inhibition, mean of two points. The note with it: (μM)=Km app.
For the next experiment, the target named is BRAF (Homo sapiens, UniProt P15056). On the set-up: SelectScreen LanthaScreen kinase binding assay, per cent tracer displacement, mean of two points. The note with it: tracer displacement.
Experiment [1] deals with T2, MAP3K7/MAP3K7IP1 (TAK1-TAB1) (Homo sapiens, UniProt O43318).
T2 construct: TAK1-TAB1
T2 sequence (O43318 1-606): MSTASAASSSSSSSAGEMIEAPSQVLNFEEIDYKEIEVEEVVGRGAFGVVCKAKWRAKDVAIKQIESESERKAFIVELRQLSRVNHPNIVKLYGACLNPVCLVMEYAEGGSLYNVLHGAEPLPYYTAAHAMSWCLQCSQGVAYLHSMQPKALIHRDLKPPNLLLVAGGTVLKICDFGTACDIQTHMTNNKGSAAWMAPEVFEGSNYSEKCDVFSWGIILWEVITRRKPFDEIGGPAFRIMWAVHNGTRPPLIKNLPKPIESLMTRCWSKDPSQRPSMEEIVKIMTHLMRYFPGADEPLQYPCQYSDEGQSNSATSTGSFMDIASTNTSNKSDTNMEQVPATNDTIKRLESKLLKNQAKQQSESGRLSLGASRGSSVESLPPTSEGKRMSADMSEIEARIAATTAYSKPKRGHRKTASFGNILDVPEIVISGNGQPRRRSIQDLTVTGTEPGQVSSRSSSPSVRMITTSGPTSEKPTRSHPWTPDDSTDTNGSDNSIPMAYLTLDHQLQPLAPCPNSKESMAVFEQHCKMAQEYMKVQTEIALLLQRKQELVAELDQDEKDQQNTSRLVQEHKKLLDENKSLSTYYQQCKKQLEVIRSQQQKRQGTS
T2 sequence (Q15750 1-504 partner): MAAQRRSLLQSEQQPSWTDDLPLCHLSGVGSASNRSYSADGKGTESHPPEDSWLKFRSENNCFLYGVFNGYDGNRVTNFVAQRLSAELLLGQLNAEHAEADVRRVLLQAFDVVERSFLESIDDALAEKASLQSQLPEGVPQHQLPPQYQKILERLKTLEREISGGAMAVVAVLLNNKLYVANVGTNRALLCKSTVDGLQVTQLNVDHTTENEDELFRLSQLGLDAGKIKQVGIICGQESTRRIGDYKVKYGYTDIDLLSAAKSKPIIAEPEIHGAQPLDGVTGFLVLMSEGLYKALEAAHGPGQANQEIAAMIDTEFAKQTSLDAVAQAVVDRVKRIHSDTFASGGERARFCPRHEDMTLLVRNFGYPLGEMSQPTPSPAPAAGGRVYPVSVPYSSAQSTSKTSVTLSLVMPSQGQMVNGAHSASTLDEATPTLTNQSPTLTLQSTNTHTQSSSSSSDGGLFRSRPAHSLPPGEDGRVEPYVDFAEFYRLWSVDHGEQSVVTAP
On the set-up: SelectScreen LanthaScreen kinase binding assay, per cent tracer displacement, mean of two points. The note with it: tracer displacement.

A further experiment addresses T3, STK17B (DRAK2) (Homo sapiens, UniProt O94768).
T3 sequence (O94768 1-372): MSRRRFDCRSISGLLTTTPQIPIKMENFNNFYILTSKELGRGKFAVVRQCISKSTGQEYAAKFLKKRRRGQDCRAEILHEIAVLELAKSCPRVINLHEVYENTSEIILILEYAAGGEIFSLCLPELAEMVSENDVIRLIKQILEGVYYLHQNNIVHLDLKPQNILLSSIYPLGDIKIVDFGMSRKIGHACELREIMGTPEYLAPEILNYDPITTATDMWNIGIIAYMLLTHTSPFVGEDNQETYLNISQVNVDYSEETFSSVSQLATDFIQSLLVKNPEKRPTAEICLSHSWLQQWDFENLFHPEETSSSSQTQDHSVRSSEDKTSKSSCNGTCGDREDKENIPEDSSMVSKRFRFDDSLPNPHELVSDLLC
On the set-up: SelectScreen LanthaScreen kinase binding assay, per cent tracer displacement, mean of two points. The settings on record: tracer displacement.

A further experiment concerns the target T4, PI3KC2γ (Homo sapiens, UniProt O75747).
T4 construct: gene PIK3C2G
Details: ADP-Glo lipid kinase assay with liver PI substrate, luminescence.

Each structure is given as a SMILES string. Read-outs that look alike come from different tables or passages of the source.

T1 sequence (O60674 whole entry): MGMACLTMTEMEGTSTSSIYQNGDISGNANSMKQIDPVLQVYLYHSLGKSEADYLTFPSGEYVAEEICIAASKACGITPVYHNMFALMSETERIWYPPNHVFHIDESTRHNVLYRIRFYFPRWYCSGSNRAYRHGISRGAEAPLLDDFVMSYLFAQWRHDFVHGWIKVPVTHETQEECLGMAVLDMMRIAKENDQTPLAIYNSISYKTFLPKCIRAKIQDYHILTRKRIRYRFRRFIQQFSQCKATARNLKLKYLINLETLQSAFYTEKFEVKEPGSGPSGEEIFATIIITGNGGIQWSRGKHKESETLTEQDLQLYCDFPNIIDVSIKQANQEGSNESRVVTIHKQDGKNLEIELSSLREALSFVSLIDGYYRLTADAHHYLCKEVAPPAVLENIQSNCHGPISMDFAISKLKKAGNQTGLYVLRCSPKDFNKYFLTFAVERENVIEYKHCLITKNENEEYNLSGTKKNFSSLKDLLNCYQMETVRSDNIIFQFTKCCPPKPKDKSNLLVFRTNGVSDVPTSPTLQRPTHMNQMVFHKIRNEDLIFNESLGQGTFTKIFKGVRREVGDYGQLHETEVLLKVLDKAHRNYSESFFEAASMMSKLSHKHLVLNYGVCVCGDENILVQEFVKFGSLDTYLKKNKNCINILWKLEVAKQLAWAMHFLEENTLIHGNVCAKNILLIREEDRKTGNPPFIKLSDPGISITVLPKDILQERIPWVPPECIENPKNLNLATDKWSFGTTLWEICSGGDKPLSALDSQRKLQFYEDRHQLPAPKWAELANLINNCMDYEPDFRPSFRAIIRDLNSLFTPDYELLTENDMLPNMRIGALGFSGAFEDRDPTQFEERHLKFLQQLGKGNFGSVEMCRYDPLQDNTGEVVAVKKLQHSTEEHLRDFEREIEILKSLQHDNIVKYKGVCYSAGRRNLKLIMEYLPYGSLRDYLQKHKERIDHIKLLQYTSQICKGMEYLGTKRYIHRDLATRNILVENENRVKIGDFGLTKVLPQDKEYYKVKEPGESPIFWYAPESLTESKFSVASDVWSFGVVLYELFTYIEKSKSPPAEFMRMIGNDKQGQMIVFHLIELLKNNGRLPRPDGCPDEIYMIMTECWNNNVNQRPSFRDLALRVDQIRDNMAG
Sequence of PKN1 (PRK1) (Q16512 whole entry): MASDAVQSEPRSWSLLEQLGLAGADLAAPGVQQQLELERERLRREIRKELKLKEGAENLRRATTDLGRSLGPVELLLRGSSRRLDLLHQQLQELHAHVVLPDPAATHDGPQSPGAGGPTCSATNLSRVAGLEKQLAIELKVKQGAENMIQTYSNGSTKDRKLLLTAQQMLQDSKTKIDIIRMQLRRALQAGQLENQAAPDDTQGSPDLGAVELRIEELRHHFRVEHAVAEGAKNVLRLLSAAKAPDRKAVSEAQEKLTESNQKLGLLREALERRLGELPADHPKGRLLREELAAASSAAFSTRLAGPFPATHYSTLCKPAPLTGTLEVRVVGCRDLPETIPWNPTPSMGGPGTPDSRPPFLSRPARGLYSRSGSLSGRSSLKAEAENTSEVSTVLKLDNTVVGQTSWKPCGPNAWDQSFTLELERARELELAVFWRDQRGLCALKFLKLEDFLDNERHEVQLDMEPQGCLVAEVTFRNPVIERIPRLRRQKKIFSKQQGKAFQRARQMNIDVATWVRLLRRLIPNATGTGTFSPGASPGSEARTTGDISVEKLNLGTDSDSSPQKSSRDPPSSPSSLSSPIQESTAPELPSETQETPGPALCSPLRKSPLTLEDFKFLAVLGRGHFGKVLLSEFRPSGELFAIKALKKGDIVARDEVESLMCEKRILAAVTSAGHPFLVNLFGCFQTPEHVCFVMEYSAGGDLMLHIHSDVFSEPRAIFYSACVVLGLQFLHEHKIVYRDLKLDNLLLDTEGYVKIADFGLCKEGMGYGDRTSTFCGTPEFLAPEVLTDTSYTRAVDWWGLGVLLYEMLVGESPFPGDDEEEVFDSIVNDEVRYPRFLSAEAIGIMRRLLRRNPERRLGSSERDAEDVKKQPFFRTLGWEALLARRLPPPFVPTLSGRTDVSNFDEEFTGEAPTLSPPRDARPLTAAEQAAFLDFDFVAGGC
Sequence of BRAF (P15056 whole entry): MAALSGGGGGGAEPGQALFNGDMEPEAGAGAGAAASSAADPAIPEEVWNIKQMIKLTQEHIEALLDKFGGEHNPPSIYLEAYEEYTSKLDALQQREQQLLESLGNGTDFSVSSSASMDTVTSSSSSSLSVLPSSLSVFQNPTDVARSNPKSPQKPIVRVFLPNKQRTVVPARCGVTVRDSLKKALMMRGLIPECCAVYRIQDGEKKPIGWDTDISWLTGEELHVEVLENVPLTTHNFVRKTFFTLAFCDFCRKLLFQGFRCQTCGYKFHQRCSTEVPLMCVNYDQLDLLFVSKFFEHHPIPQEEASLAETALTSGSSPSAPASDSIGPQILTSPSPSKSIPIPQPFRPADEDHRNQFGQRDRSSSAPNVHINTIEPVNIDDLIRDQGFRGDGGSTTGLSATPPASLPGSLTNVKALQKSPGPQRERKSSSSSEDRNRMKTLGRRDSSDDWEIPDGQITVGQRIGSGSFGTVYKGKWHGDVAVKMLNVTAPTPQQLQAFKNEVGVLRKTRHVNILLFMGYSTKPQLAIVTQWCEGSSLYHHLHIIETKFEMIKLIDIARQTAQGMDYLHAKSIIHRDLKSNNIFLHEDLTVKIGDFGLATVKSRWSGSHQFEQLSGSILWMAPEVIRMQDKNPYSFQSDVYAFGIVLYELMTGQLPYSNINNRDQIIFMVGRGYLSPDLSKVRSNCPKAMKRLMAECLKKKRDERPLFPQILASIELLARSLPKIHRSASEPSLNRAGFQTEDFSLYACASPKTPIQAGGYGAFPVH
T4 sequence (O75747 whole entry): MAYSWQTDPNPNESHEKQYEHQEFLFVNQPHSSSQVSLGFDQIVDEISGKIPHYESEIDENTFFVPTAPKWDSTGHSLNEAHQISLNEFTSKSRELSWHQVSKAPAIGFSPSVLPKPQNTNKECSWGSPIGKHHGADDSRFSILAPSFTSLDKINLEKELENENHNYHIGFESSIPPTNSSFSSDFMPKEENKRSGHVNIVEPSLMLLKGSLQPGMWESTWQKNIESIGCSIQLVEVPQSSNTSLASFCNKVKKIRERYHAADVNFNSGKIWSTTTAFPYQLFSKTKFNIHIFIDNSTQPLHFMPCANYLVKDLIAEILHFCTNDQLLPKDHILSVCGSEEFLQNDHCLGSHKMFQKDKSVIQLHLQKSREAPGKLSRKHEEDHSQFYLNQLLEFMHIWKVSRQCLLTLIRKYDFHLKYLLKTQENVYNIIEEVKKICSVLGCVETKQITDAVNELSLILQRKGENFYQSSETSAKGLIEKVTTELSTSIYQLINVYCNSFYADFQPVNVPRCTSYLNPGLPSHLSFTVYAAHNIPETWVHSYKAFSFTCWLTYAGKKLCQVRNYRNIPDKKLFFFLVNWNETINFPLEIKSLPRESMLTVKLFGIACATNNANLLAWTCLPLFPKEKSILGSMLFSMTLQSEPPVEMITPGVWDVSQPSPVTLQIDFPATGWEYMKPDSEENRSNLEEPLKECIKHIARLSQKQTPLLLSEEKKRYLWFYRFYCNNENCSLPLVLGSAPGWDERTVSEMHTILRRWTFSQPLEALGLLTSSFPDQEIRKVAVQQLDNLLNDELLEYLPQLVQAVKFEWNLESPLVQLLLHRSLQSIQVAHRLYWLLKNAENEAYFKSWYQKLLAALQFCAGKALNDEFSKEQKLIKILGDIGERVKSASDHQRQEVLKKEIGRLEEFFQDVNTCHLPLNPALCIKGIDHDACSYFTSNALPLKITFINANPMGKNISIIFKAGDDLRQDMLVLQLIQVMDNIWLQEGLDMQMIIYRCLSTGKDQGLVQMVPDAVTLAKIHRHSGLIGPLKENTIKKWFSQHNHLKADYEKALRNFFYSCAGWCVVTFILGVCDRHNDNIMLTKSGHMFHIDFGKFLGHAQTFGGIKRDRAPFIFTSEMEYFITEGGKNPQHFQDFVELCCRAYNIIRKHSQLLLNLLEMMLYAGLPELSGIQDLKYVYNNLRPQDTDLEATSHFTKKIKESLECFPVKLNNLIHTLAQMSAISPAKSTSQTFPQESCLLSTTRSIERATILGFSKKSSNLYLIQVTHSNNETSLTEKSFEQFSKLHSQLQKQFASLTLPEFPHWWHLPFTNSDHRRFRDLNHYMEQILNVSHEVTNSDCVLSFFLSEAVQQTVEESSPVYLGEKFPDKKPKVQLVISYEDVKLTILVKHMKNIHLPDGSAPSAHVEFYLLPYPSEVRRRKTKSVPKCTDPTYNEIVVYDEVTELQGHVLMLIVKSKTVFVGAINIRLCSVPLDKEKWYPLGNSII

One may read the inhibition as the drop in the measured response relative to a control, in per cent. For the compound `O=C(CSc1nc2nccnc2c(=O)n1CCc1ccccc1)Nc1nccs1` [compound 1, PITCOIN1], the inhibition at 1 µM is 5% against PIP5K1B; -0.97% against JAK2 JH1 JH2; 8.46% against PKN1 (PRK1); 6.59% against PRKCA (PKC alpha); -3.95% on BRAF; -3.93% in experiment [1]. Also, at STK17B (DRAK2), the inhibition at 1 µM is -6.01%. Besides, the inhibition at 3 µM was -0.0652% against JAK2 JH1 JH2; 1.84% at PKN1 (PRK1); 10% at PRKCA (PKC alpha); 1.69% at BRAF; -9.87% in experiment [1]; 2.55% at STK17B (DRAK2). The inhibition at 10 µM was -0.468% against JAK2 JH1 JH2; -4.65% against PKN1 (PRK1); 0.714% against PRKCA (PKC alpha); 0.837% at BRAF; -11.5% in experiment [1]; 4.06% at STK17B (DRAK2).
As usually defined, the IC50 is the concentration that inhibits the measured activity by half. As for `O=C(CSc1nc2nccnc2c(=O)n1CCc1ccccc1)Nc1nc(-c2cccc(O)c2)cs1` [compound 2, PITCOIN2], the inhibition at 1 µM against PIP5K1B was -1%. For the same compound, on PI3KC2γ (read-out: PITCOIN2 (IC50)), the IC50 is greater than 10 µM.
For `CS(=O)(=O)Nc1cccc(-c2csc(NC(=O)CSc3nc4nccnc4c(=O)n3CCc3ccccc3)n2)c1` [compound 3, PITCOIN3], the inhibition at 1 µM was 0.755% against JAK2 JH1 JH2; 2.88% against PKN1 (PRK1); 0.445% at PRKCA (PKC alpha); 6.15% at BRAF; -2.55% in experiment [1]; -7.55% on STK17B (DRAK2). The inhibition at 3 µM on JAK2 JH1 JH2 was 0.839%; against PKN1 (PRK1), -5.53%; at PRKCA (PKC alpha), 18.8%; on BRAF, 7.18%; in experiment [1], -10.1%; on STK17B (DRAK2) it was -5.4%. The inhibition at 10 µM was 1.69% against JAK2 JH1 JH2; 4.05% against PKN1 (PRK1); 15.2% against PRKCA (PKC alpha); 9.11% at BRAF; -10.1% in experiment [1]; 11.1% at STK17B (DRAK2). Besides, the IC50 on PI3KC2γ (read-out: PITCOIN3 (IC50)) was greater than 10 µM.
